Earlier results in US20240287015A1, “Method for Producing an Ionizable Lipid” (NanoVation Therapeutics Inc., priority 2021, published 2024).

Conditions: siRNA LNP formulations; MC3 relative to similar KC2-based formulations

## CCCCC/C=C\C/C=C\CCCCCCCCC(CCCCCCCC/C=C\C/C=C\CCCCC)OC(=O)CCCN(C)C [MC3, (6Z,9Z,28Z,31Z)-heptatriacont-6,9,28,31-tetraene-19-yl 4-(dimethylamino)butanoate]
  times less siRNA required than KC2 to attain the same end result: about 3 times
